Test results taken from ChEMBL document CHEMBL4765288, “Synthesis of novel monocarbonyl curcuminoids, evaluation of their efficacy against MRSA, including ex vivo infection model and their mechanistic studies” (Eur J Med Chem, 2020).
Converted amounts (≈) assume the structure as drawn. The source made the active and inactive calls. No cut-off for these calls is given here. Positions of bridges follow the written chain, without caps; N, C: chain ends. Non-standard residues stand in square brackets, D forms with d. Residues, ends and D or L forms follow the SMILES beside them. *: point of attachment. X1 = CC[C@H](C)CCCCC(=O)*; Dab = NCC[C@H](N)C(=O)O

Assays:
Staphylococcus aureus [1] = experiment: Antibacterial activity against methicillin susceptible Staphylococcus aureus ATCC 29213 after 16 to 18 hrs by CLSI-based microbroth dilution method; assay type: functional; conditions: time 16-18 hrs
Staphylococcus aureus [2] = experiment: Antibacterial activity against methicillin resistant Staphylococcus aureus ATCC 33591 after 16 to 18 hrs by CLSI-based microbroth dilution method; assay type: functional; conditions: time 16-18 hrs
Staphylococcus aureus [3] = experiment: Antibacterial activity against methicillin resistant Staphylococcus aureus ATCC S-28 after 16 to 18 hrs by CLSI-based microbroth dilution method; assay type: functional; conditions: time 16-18 hrs
Staphylococcus aureus [4] = experiment: Antibacterial activity against methicillin resistant Staphylococcus aureus S-30 after 16 to 18 hrs by CLSI-based microbroth dilution method; assay type: functional; conditions: time 16-18 hrs
Staphylococcus aureus [5] = experiment: Antibacterial activity against methicillin resistant Staphylococcus aureus S-33 after 16 to 18 hrs by CLSI-based microbroth dilution method; assay type: functional; conditions: time 16-18 hrs
Staphylococcus aureus [6] = experiment: Antibacterial activity against methicillin resistant Staphylococcus aureus S-34 after 16 to 18 hrs by CLSI-based microbroth dilution method; assay type: functional; conditions: time 16-18 hrs
Staphylococcus aureus [7] = experiment: Antibacterial activity against methicillin resistant Staphylococcus aureus S-37 after 16 to 18 hrs by CLSI-based microbroth dilution method; assay type: functional; conditions: time 16-18 hrs
Staphylococcus aureus [8] = experiment: Antibacterial activity against methicillin resistant Staphylococcus aureus S-41 after 16 to 18 hrs by CLSI-based microbroth dilution method; assay type: functional; conditions: time 16-18 hrs
Escherichia coli [9] = experiment: Antibacterial activity against Escherichia coli ATCC 25922 after 16 to 18 hrs by CLSI-based microbroth dilution method; assay type: functional; conditions: time 16-18 hrs
Escherichia coli [10] = experiment: Antibacterial activity against Escherichia coli ATCC 11775 after 16 to 18 hrs by CLSI-based microbroth dilution method; assay type: functional; conditions: time 16-18 hrs
Escherichia coli [11] = experiment: Antibacterial activity against Escherichia coli E-52 after 16 to 18 hrs by CLSI-based microbroth dilution method; assay type: functional; conditions: time 16-18 hrs
Escherichia coli [12] = experiment: Antibacterial activity against Escherichia coli E-59 after 16 to 18 hrs by CLSI-based microbroth dilution method; assay type: functional; conditions: time 16-18 hrs
Escherichia coli [13] = experiment: Antibacterial activity against Escherichia coli E-74 after 16 to 18 hrs by CLSI-based microbroth dilution method; assay type: functional; conditions: time 16-18 hrs
[14] = Hemolytic activity in mouse RBC at 75 ug/ml after 1 hr by microplate reader analysis relative to control; assay type: ADME, cell-based, Erythrocyte; conditions: mouse red blood cells (erythrocytes), at 75 µg/mL, read-out: Activity
[15] = Hemolytic activity in mouse RBC at 150 ug/ml after 1 hr by microplate reader analysis relative to control; assay type: ADME, cell-based, Erythrocyte; conditions: mouse red blood cells (erythrocytes), at 150 µg/mL, read-out: Activity
[16] = Cytotoxicity against mouse 3T3 cells assessed as reduction in cell viability at 75 ug/ml after 4 hrs by MTT assay (reference value: 90.42 +/- 0.03%); assay type: cell-based; conditions: 3t3, 4 h, at 75 µg/mL
[17] = Cytotoxicity against mouse 3T3 cells assessed as reduction in cell viability at 150 ug/ml after 4 hrs by MTT assay (reference value: 90.42 +/- 0.03%); assay type: cell-based; conditions: at 150 µg/mL, read-out: Activity
Cell membrane [18] = experiment: Induction of cytoplasmic membrane depolarization in methicillin resistant Staphylococcus aureus ATCC 33591 at 5 times MIC by [DiSC3(5)] probe based fluorescence assay relative to control; assay type: subcellular; conditions: time 2.0 hrs
Cell membrane [19] = experiment: Induction of cytoplasmic membrane permeabilization in Staphylococcus aureus ATCC 33591 at 5 times MIC measured after 2 min using calcein-AM as substrate by dye based fluorescence assay relative to control; assay type: subcellular
Cell membrane [20] = experiment: Induction of cell membrane damage in Staphylococcus aureus ATCC 33591 at 5 times MIC assessed as loss of cell viability measured after 2 hrs by confocal microscopy
Cell membrane [21] = experiment: Induction of cell membrane damage in Staphylococcus aureus ATCC 33591 assessed as membrane surface perturbation with multiple dent and bleb formation at 5 times MIC after 4 hrs by scanning electron microscopy; assay type: subcellular
Cell membrane [22] = experiment: Induction of cytoplasmic membrane permeabilization in Staphylococcus aureus ATCC 33591 at 5 times MIC measured after 120 min using calcein-AM as substrate by dye based fluorescence assay relative to control; assay type: subcellular
Staphylococcus aureus [23] = experiment: Antibacterial activity against methicillin susceptible Staphylococcus aureus ATCC 29213 infected in mouse 3T3 cells assessed as bacterial load at 5 times MIC after 16 hrs (reference value: 6.6 log CFU/ml); assay type: functional
Staphylococcus aureus [24] = experiment: Bactericidal activity against methicillin-resistant Staphylococcus aureus assessed as reduction in viable count at 5 times MIC measured upto 4 hrs by time-kill assay; assay type: functional; conditions: time hrs <=4
Staphylococcus aureus [25] = experiment: Bactericidal activity against methicillin-resistant Staphylococcus aureus assessed as complete bacterial killing at 5 times MIC measured after 6 hrs by time-kill assay; assay type: functional, organism-based
Staphylococcus aureus [26] = experiment: Bactericidal activity against methicillin-resistant Staphylococcus aureus assessed as in viable cells at 5 times MIC measured after 1 hr by time-kill assay; assay type: functional

## COc1cc(/C=C/C(=O)CC(=O)/C=C/c2ccc(O)c(OC)c2)ccc1O [CURCUMIN]
Staphylococcus aureus [1]
  MIC: > 256 µg/mL
Staphylococcus aureus [2]
  MIC: > 256 µg/mL

## COc1cc(/C=C2\CC/C(=C\c3ccc(OCCCCN4CCCCCC4)c(OC)c3)C2=O)ccc1OCCCCN1CCCCCC1.Cl.Cl
Staphylococcus aureus [1]
  MIC: 2 µg/mL
Staphylococcus aureus [2]
  MIC: 4 µg/mL
Staphylococcus aureus [3]
  MIC: 8 µg/mL
Staphylococcus aureus [4]
  MIC: 8 µg/mL
Staphylococcus aureus [5]
  MIC: 8 µg/mL
Staphylococcus aureus [6]
  MIC: 16 µg/mL
Staphylococcus aureus [7]
  MIC: 16 µg/mL
Staphylococcus aureus [8]
  MIC: 8 µg/mL
Escherichia coli [9]
  MIC: 16 µg/mL
Escherichia coli [10]
  MIC: 16 µg/mL
Escherichia coli [11]
  MIC: 32 µg/mL
Escherichia coli [12]
  MIC: 32 µg/mL
Escherichia coli [13]
  MIC: 32 µg/mL
[14]
  hemolysis at 1 h, 75 ug/ml: 6.19%
[15]
  hemolysis at 1 h, 150 ug/ml: 9.32%
[16]
  Activity: 7.03%
[17]
  viability at 4 h, 150 ug/ml: 14.8%
Cell membrane [18]
  Activity: 90.7%
Cell membrane [19]
  Activity: 69.7%
Cell membrane [20]
  Activity: Active
Cell membrane [21]
  Activity: Active
Cell membrane [22]
  Activity: 89%
Staphylococcus aureus [23]
  Activity: 3.23 log10CFU/ml

## CN[C@H](CC(C)C)C(=O)N[C@H]1C(=O)N[C@@H](CC(N)=O)C(=O)N[C@H]2C(=O)N[C@H]3C(=O)N[C@H](C(=O)N[C@H](C(=O)O)c4cc(O)cc(O)c4-c4cc3ccc4O)[C@H](O)c3ccc(c(Cl)c3)Oc3cc2cc(c3O[C@@H]2O[C@H](CO)[C@@H](O)[C@H](O)[C@H]2O[C@H]2C[C@](C)(N)[C@H](O)[C@H](C)O2)Oc2ccc(cc2Cl)[C@H]1O [VANCOMYCIN]
Escherichia coli [9]
  MIC: 64 µg/mL (≈ 44.2 µM)
Escherichia coli [10]
  MIC: 64 µg/mL (≈ 44.2 µM)
Escherichia coli [11]
  MIC: 128 µg/mL (≈ 88.3 µM)
Escherichia coli [12]
  MIC: 128 µg/mL (≈ 88.3 µM)
Escherichia coli [13]
  MIC: 128 µg/mL (≈ 88.3 µM)

## Cl.Cl.O=C1/C(=C/c2ccc(OCCCCN3CCCCCC3)cc2)CC/C1=C\c1ccc(OCCCCN2CCCCCC2)cc1
Staphylococcus aureus [1]
  MIC: 4 µg/mL
Staphylococcus aureus [2]
  MIC: 4 µg/mL
Staphylococcus aureus [3]
  MIC: 4 µg/mL
Staphylococcus aureus [4]
  MIC: 4 µg/mL
Staphylococcus aureus [5]
  MIC: 8 µg/mL
Staphylococcus aureus [6]
  MIC: 8 µg/mL
Staphylococcus aureus [7]
  MIC: 8 µg/mL
Staphylococcus aureus [8]
  MIC: 8 µg/mL
Escherichia coli [9]
  MIC: 16 µg/mL
Escherichia coli [10]
  MIC: 16 µg/mL
Escherichia coli [11]
  MIC: 16 µg/mL
Escherichia coli [12]
  MIC: 32 µg/mL
Escherichia coli [13]
  MIC: 32 µg/mL
[14]
  hemolysis at 1 h, 75 ug/ml: 6.19%
[15]
  hemolysis at 1 h, 150 ug/ml: 9.32%
[16]
  Activity: 7.03%
[17]
  viability at 4 h, 150 ug/ml: 14.8%
Cell membrane [18]
  Activity: 95.7%
Cell membrane [19]
  Activity: 76.6%
Cell membrane [20]
  Activity: Active
Cell membrane [21]
  Activity: Active
Staphylococcus aureus [24]
  Activity: 4.3 log10CFU/ml
Cell membrane [22]
  Activity: 90.3%
Staphylococcus aureus [23]
  Activity: 3 log10CFU/ml

## COc1cc(/C=C2\CC/C(=C\c3ccc(OCCCN4CCCCCC4)c(OC)c3)C2=O)ccc1OCCCN1CCCCCC1.Cl.Cl
Staphylococcus aureus [1]
  MIC: 2 µg/mL
Staphylococcus aureus [2]
  MIC: 4 µg/mL
Staphylococcus aureus [3]
  MIC: 8 µg/mL
Staphylococcus aureus [4]
  MIC: 8 µg/mL
Staphylococcus aureus [5]
  MIC: 8 µg/mL
Staphylococcus aureus [6]
  MIC: 8 µg/mL
Staphylococcus aureus [7]
  MIC: 8 µg/mL
Staphylococcus aureus [8]
  MIC: 8 µg/mL
Escherichia coli [9]
  MIC: 16 µg/mL
Escherichia coli [10]
  MIC: 16 µg/mL
Escherichia coli [11]
  MIC: 32 µg/mL
Escherichia coli [12]
  MIC: 32 µg/mL
Escherichia coli [13]
  MIC: 32 µg/mL
[14]
  hemolysis at 1 h, 75 ug/ml: 6.19%
[15]
  hemolysis at 1 h, 150 ug/ml: 9.32%
[16]
  Activity: 7.03%
[17]
  viability at 4 h, 150 ug/ml: 14.8%
Cell membrane [18]
  Activity: 95.7%
Cell membrane [19]
  Activity: 80.6%
Cell membrane [20]
  Activity: Active
Cell membrane [21]
  Activity: Active
Staphylococcus aureus [25]
  Activity: Active
Cell membrane [22]
  Activity: 93.2%
Staphylococcus aureus [23]
  Activity: 3.91 log10CFU/ml

## CC[C@H](C)CCCCC(=O)N[C@@H](CCN)C(=O)N[C@H](C(=O)N[C@@H](CCN)C(=O)N[C@H]1CCNC(=O)[C@H]([C@@H](C)O)NC(=O)[C@H](CCN)NC(=O)[C@H](CCN)NC(=O)[C@H](CC(C)C)NC(=O)[C@@H](Cc2ccccc2)NC(=O)[C@H](CCN)NC1=O)[C@@H](C)O (X1-[Dab]T[Dab][Dab][Dab][dF]L[Dab][Dab]T; lactam 4-C)
Escherichia coli [9]
  MIC: 0.5 µg/mL (≈ 0.415 µM)
Escherichia coli [10]
  MIC: 0.5 µg/mL (≈ 0.415 µM)
Escherichia coli [11]
  MIC: 1 µg/mL (≈ 0.831 µM)
Escherichia coli [12]
  MIC: 1 µg/mL (≈ 0.831 µM)
Escherichia coli [13]
  MIC: 1 µg/mL (≈ 0.831 µM)

## Cc1onc(-c2ccccc2)c1C(=O)N[C@@H]1C(=O)N2[C@@H]1SC(C)(C)[C@@H]2C(=O)O [OXACILLIN]
Staphylococcus aureus [1]
  MIC: 0.5 µg/mL (≈ 1.25 µM)
Staphylococcus aureus [2]
  MIC: 64 µg/mL (≈ 159 µM)
Staphylococcus aureus [3]
  MIC: 128 µg/mL (≈ 319 µM)
Staphylococcus aureus [4]
  MIC: 128 µg/mL (≈ 319 µM)
Staphylococcus aureus [5]
  MIC: 128 µg/mL (≈ 319 µM)
Staphylococcus aureus [6]
  MIC: 128 µg/mL (≈ 319 µM)
Staphylococcus aureus [7]
  MIC: 128 µg/mL (≈ 319 µM)
Staphylococcus aureus [8]
  MIC: 128 µg/mL (≈ 319 µM)

## CCOc1cc(/C=C2\CC/C(=C\c3ccc(OCCCN4CCCC(C)C4)c(OCC)c3)C2=O)ccc1OCCCN1CCCC(C)C1.Cl.Cl (stereo not given)
Staphylococcus aureus [1]
  MIC: 2 µg/mL
Staphylococcus aureus [2]
  MIC: 4 µg/mL
Staphylococcus aureus [3]
  MIC: 8 µg/mL
Staphylococcus aureus [4]
  MIC: 8 µg/mL
Staphylococcus aureus [5]
  MIC: 8 µg/mL
Staphylococcus aureus [6]
  MIC: 8 µg/mL
Staphylococcus aureus [7]
  MIC: 8 µg/mL
Staphylococcus aureus [8]
  MIC: 8 µg/mL
Escherichia coli [9]
  MIC: 8 µg/mL
Escherichia coli [10]
  MIC: 8 µg/mL
Escherichia coli [11]
  MIC: 16 µg/mL
Escherichia coli [12]
  MIC: 32 µg/mL
Escherichia coli [13]
  MIC: 32 µg/mL
[14]
  hemolysis at 1 h, 75 ug/ml: 6.19%
[15]
  hemolysis at 1 h, 150 ug/ml: 9.32%
[16]
  Activity: 7.03%
[17]
  viability at 4 h, 150 ug/ml: 14.8%
Staphylococcus aureus [26]
  Activity: -3.4 log10CFU/ml
Cell membrane [18]
  Activity: 87%
Cell membrane [19]
  Activity: 60.2%
Cell membrane [20]
  Activity: Active
Cell membrane [21]
  Activity: Active
Cell membrane [22]
  Activity: 92.7%
Staphylococcus aureus [23]
  Activity: 3.99 log10CFU/ml
